# Measurements published in patent US20200109126A1 (priority 2017, published 2020).
# pEC50, pKi: −log10 of the molar value. Like-named read-outs stand apart in the source and are kept apart here.
# Key:
# hMOR = hMOR (Homo sapiens, UniProt P35372); test: Receptor binding with [3H]diprenorphine at hMOR
# MM1 (MOR N127C) = target: T1, MM1 (MOR N127C) (Homo sapiens, UniProt P35372, N129C); test: Receptor binding at MM1 (MOR N127C)
# T1 construct: expressed in transfected cells; host or cells: HEK 293
# T1 sequence (P35372 whole entry N129C): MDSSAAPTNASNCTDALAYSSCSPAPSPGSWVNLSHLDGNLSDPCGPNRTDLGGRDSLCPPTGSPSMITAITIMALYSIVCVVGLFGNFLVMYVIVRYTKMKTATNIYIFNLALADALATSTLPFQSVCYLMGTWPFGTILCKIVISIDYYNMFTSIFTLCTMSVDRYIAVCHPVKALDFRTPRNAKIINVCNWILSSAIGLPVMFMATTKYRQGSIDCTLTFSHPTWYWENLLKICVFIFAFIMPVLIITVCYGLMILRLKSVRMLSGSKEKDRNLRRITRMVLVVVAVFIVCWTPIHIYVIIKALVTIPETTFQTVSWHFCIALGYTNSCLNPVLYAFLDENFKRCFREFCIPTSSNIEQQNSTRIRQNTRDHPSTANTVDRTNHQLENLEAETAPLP
# hKOR = hKOR (Homo sapiens, UniProt P41145); test: Receptor binding with [3H]diprenorphine at hKOR
# Chain of hKOR (P41145 whole entry): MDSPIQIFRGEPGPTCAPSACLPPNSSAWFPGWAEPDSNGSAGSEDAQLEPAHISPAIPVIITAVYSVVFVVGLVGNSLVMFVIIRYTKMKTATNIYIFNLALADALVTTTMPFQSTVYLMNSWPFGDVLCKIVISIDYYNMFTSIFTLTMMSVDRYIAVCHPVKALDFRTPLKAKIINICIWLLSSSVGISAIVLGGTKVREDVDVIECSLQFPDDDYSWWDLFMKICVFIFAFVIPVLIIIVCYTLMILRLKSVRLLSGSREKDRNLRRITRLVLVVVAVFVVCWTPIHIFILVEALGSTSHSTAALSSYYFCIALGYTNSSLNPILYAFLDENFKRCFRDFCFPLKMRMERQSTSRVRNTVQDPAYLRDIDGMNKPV
# humanDOR = humanDOR (Homo sapiens, UniProt P41143); test: Receptor binding with [3H]diprenorphine at human DOR
# Chain of humanDOR (P41143 whole entry): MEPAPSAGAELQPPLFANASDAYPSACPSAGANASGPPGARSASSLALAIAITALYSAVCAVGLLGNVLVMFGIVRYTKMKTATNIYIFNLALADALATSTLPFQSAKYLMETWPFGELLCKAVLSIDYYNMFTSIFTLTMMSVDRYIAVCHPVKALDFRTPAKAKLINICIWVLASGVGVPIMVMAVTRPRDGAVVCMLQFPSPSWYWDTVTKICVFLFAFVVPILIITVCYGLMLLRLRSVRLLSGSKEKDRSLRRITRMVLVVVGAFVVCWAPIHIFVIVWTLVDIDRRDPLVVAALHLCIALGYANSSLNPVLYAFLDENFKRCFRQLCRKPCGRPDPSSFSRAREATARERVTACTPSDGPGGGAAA
# μOR [1] = target: T2, μOR (Homo sapiens, UniProt P35372); test: β-arrestin recruitment at μOR without GRK2; format: cell-based; conditions: for pEC50: read-out: Arrestin EC50
# T2 sequence (P35372 whole entry): as the sequence (P35372 whole entry N129C) above, with C129N counted along it
# μOR [2] = target: T2, μOR; test: β-arrestin recruitment at μOR with GRK2 co-expression; format: cell-based; conditions: for pEC50: read-out: Arrestin + GRK2 EC50
# μOR [3] = target: T2, μOR; test: cell-based; format: cell-based
# μOR [4] = target: T2, μOR; test: biochemical; format: binding; parameters: expressed in transfected cells; host or cells: HEK293 membranes (Ki); Sf9 insect cell membranes (single-point screen); PDSP for analogs
# Procedure: For a primary screen of selected molecules, binding to OR was assessed by measuring competition against the radioligand ^3H-diprenorphine (^3H-DPN). […] The reaction contained 40 fmol of μOR and was incubated in a buffer of 20 mM HEPES pH 7.5, 100 mM sodium chloride, and 0.1% bovine serum albumin for 1 hour at 25° C. To separate free from bound radioligand, reactions were rapidly filtered over Whatman GF/B filters with the aid of a Brandel harvester and ^3H-DPN counts were measured by liquid scintillation.
# κOR = target: T3, κOR (Homo sapiens, UniProt P41145); test: Radioligand binding at κOR (PDSP); conditions: for Ki: κOR Ki (μM); for κOR Ki, given as percentage: <50% instead of a Ki
# T3 construct: NIMH Psychoactive Drug Screening Program (PDSP)
# T3 sequence (P41145 whole entry): as the sequence (P41145 whole entry) above
# [5] = PZM analogs, (n) = number of independent experiments, read-out: binding affinity Ki hMOR
# [6] = (n) = number of independent experiments, read-out: binding affinity Ki MM1 (MOR N127C)
# [7] = PZM analogs, (n) = number of independent experiments, read-out: binding affinity Ki hKOR
# [8] = PZM analogs, (n) = number of independent experiments, read-out: binding affinity Ki hDOR
# [9] = ± SD (two experiments) or SEM, (n) experiments, read-out: hMOR [3H]dyprenorphine Ki
# [10] = ± SD (two experiments) or SEM, (n) experiments, read-out: hKOR [3H]dyprenorphine Ki
# [11] = ± SD (two experiments) or SEM, (n) experiments, read-out: humanDOR [3H]dyprenorphine Ki
# [12] = molecules identified in the initial screen, read-out: μOR Ki
# [13] = analogs, full dose-response, read-out: μOR Ki
# [14] = μOR Gi EC50 (μM), ND = not detectable under these experimental conditions
# Chain of hMOR (P35372 whole entry): as the sequence (P35372 whole entry N129C) above, with C129N counted along it
structure (smiles),measurement,setting,value
C[C@@H](Cc1ccsc1)NC(=O)NC[C@H](Cc1ccc(O)nc1)N(C)C,pKi,hMOR; [5],5.34
same,pKi,MM1 (MOR N127C); [6],5.42
same,pKi,hKOR; [7],4.92
same,pKi,humanDOR; [8],< 4.70
CN(C)[C@H](CNC(=O)NCCN1C(=O)C=CC1=O)Cc1ccc(O)cc1,pKi,hMOR; [5],6.62
same,pKi,MM1 (MOR N127C); [6],8.43
same,pKi,hKOR; [7],6.22
same,pKi,humanDOR; [8],6.35
CN(C)[C@H](CNC(=O)NCCCN1C(=O)C=CC1=O)Cc1ccc(O)cc1,pKi,hMOR; [5],6.42
same,pKi,MM1 (MOR N127C); [6],8.33
same,pKi,hKOR; [7],6.35
same,pKi,humanDOR; [8],5.51
CN(C)[C@H](CNC(=O)NCCCCN1C(=O)C=CC1=O)Cc1ccc(O)cc1,pKi,hMOR; [5],6.00
same,pKi,MM1 (MOR N127C); [6],8.23
same,pKi,hKOR; [7],6.12
same,pKi,humanDOR; [8],5.31
Cc1cc(O)cc(C)c1C[C@@H](CNC(=O)NCCN1C(=O)C=CC1=O)N(C)C,pKi,hMOR; [5],7.74
same,pKi,MM1 (MOR N127C); [6],9.03
same,pKi,hKOR; [7],6.70
same,pKi,humanDOR; [8],6.82
C[C@@H](CN1C(=O)C=CC1=O)NC(=O)NC[C@H](Cc1ccc(O)cc1)N(C)C,pKi,hMOR; [5],6.39
same,pKi,MM1 (MOR N127C); [6],8.25
same,pKi,hKOR; [7],5.92
same,pKi,humanDOR; [8],6.07
C[C@H](CN1C(=O)C=CC1=O)NC(=O)NC[C@H](Cc1ccc(O)cc1)N(C)C,pKi,hMOR; [5],7.05
same,pKi,MM1 (MOR N127C); [6],9.89
same,pKi,hKOR; [7],6.16
same,pKi,humanDOR; [8],6.68
CN(C)[C@H](CNC(=O)NCCc1c[nH]nn1)Cc1ccc(O)cc1,pKi,hMOR,6.02
same,pKi,MM1 (MOR N127C),6.20
same,pKi,hKOR,5.85
same,pKi,humanDOR,5.33
CN(CCc1ccccc1)C(=O)N(C)C[C@H](Cc1ccc(O)cc1)N(C)C [DD109],Arrestin EC50 nM,μOR [1],No Activity
same,Arrestin Emax % DAMGO,μOR [1],No Activity
same,Arrestin + GRK2 EC50 nM,μOR [2],No Activity
same,Arrestin + GRK2 Emax % DAMGO,μOR [2],No Activity
same,Gi/o EC50 nM,μOR [3],No Activity
same,Gi/o Emax % DAMGO,μOR [3],No Activity
"C[C@@H](Cc1ccsc1)NC(=O)NC[C@H](Cc1ccc(O)c(CO)c1)N(C)C [DD131, 1-((S)-2-(dimethylamino)-3-(4-hydroxy-3-(hydroxymethyl)phenyl)propyl)-3-((S)-1-(thiophen-3-yl)propan-2-yl)urea]",Arrestin Emax % DAMGO,μOR [1],11 % DAMGO
same,pEC50,μOR [1],6.64
same,Arrestin + GRK2 Emax % DAMGO,μOR [2],45 % DAMGO
same,pEC50,μOR [2],6.67
same,Gi/o Emax % DAMGO,μOR [3],57 % DAMGO
same,EC50,μOR [3]; Gi/o EC50 nM,7.94 nM
CN(CC1CC1)[C@H](CNC(=O)NCCc1ccccc1)Cc1ccc(O)cc1 [DD184],Arrestin EC50 nM,μOR [1],No Activity
same,Arrestin Emax % DAMGO,μOR [1],No Activity
same,Arrestin + GRK2 EC50 nM,μOR [2],No Activity
same,Arrestin + GRK2 Emax % DAMGO,μOR [2],No Activity
same,Gi/o Emax % DAMGO,μOR [3],40 % DAMGO
same,EC50,μOR [3]; Gi/o EC50 nM,559 nM
"CN(C)[C@H](CNC(=O)NCCc1ccsc1)Cc1ccc(O)cc1 [DD 16, (S)-1-(2-(dimethylamino)-3-(4-hydroxyphenyl)propyl)-3-(2-(thiophen-3-yl)ethyl)urea]",pKi,hMOR; [9],7.37
same,Arrestin Emax % DAMGO,μOR [1],5 % DAMGO
same,EC50,μOR [1]; read-out: Arrestin pEC50 (converted),410 nM
same,Arrestin + GRK2 Emax % DAMGO,μOR [2],33 % DAMGO
same,pEC50,μOR [2],6.84
same,Gi/o Emax % DAMGO,μOR [3],60 % DAMGO
same,EC50,μOR [3]; Gi/o EC50 nM,7.55 nM
same,pKi,hKOR; [10],6.82
same,pKi,humanDOR; [11],6.48
"CN(C)[C@H](CNC(=O)NC(C)(C)Cc1ccsc1)Cc1ccc(O)cc1 [DD 32L, (S)-1-(2-(dimethylamino)-3-(4-hydroxyphenyl)propyl)-3-(2-methyl-1-(thiophen-3-yl)propan-2-yl)urea]",pKi,hMOR; [9],7.42
same,Arrestin Emax % DAMGO,μOR [1],3 % DAMGO
same,pEC50,μOR [1],8.28
same,Arrestin + GRK2 Emax % DAMGO,μOR [2],24 % DAMGO
same,pEC50,μOR [2],7.31
same,Gi/o Emax % DAMGO,μOR [3],52 % DAMGO
same,EC50,μOR [3]; Gi/o EC50 nM,23.5 nM
same,pKi,hKOR; [10],7.34
same,pKi,humanDOR; [11],6.19
"CN(C)[C@H](CNC(=O)NC(C)(C)Cc1ccccc1)Cc1ccc(O)cc1 [DD 33L, (S)-1-(2-(dimethylamino)-3-(4-hydroxyphenyl)propyl)-3-(2-methyl-1-phenylpropan-2-yl)urea]",pKi,hMOR; [9],7.34
same,Arrestin EC50 nM,μOR [1],No Activity
same,Arrestin Emax % DAMGO,μOR [1],No Activity
same,Arrestin + GRK2 Emax % DAMGO,μOR [2],14 % DAMGO
same,pEC50,μOR [2],6.87
same,Gi/o Emax % DAMGO,μOR [3],61 % DAMGO
same,EC50,μOR [3]; Gi/o EC50 nM,98.1 nM
same,pEC50,μOR [3]; Gi/o pEC50,7.01
same,pKi,hKOR; [10],7.04
same,pKi,humanDOR; [11],6.04
"C[C@@H](Cc1ccsc1)NC(=O)NC[C@H](Cc1cccc(O)c1)N(C)C [DD 47LS, 1-((S)-2-(dimethylamino)-3-(3-hydroxyphenyl)propyl)-3-((S)-1-(thiophen-3-yl)propan-2-yl)urea]",pKi,hMOR; [9],7.47
same,Arrestin Emax % DAMGO,μOR [1],12 % DAMGO
same,pEC50,μOR [1],6.45
same,Arrestin + GRK2 Emax % DAMGO,μOR [2],70 % DAMGO
same,pEC50,μOR [2],6.68
same,Gi/o Emax % DAMGO,μOR [3],73 % DAMGO
same,EC50,μOR [3]; Gi/o EC50 nM,17 nM
same,pKi,hKOR; [10],7.34
same,pKi,humanDOR; [11],6.46
"C[C@H](NC(=O)NC[C@H](Cc1ccc(O)cc1)N(C)C)c1ccccc1 [DD 53LS, 1-((S)-2-(dimethylamino)-3-(4-hydroxyphenyl)propyl)-3-((S)-1-phenylethyl)urea]",pKi,hMOR; [9],7.55
same,Arrestin Emax % DAMGO,μOR [1],5 % DAMGO
same,pEC50,μOR [1],7.17
same,Arrestin + GRK2 Emax % DAMGO,μOR [2],33 % DAMGO
same,pEC50,μOR [2],7.06
same,Gi/o Emax % DAMGO,μOR [3],63 % DAMGO
same,EC50,μOR [3]; Gi/o EC50 nM,3.08 nM
same,pKi,hKOR; [10],7.66
same,pKi,humanDOR; [11],6.74
"CN(C)[C@H](CNC(=O)NC1Cc2ccccc2C1)Cc1ccc(O)cc1 [DD 57L, (S)-1-(2,3-dihydro-1H-inden-2-yl)-3-(2-(dimethylamino)-3-(4-hydroxyphenyl)propyl)urea]",pKi,hMOR; [9],8.08
same,Arrestin EC50 nM,μOR [1],No Activity
same,Arrestin Emax % DAMGO,μOR [1],No Activity
same,Arrestin + GRK2 EC50 nM,μOR [2],No Activity
same,Arrestin + GRK2 Emax % DAMGO,μOR [2],No Activity
same,Gi/o EC50 nM,μOR [3],No Activity
same,Gi/o Emax % DAMGO,μOR [3],No Activity
same,pKi,hKOR; [10],7.40
same,pKi,humanDOR; [11],7.13
"C[C@@H](Cc1ccccc1)NC(=O)NC[C@H](Cc1ccc(O)cc1)N(C)C [DD 61L-B, 1-((S)-2-(dimethylamino)-3-(4-hydroxyphenyl)propyl)-3-((S)-1-phenylpropan-2-yl)urea]",pKi,hMOR; [9],7.38
same,Arrestin Emax % DAMGO,μOR [1],12 % DAMGO
same,pEC50,μOR [1],7.08
same,Arrestin + GRK2 Emax % DAMGO,μOR [2],79 % DAMGO
same,pEC50,μOR [2],6.56
same,Gi/o Emax % DAMGO,μOR [3],84 % DAMGO
same,EC50,μOR [3]; Gi/o EC50 nM,35.5 nM
same,pKi,hKOR; [10],7.43
same,pKi,humanDOR; [11],6.44
CN(C)[C@H](CNC(=O)Cc1cn2ccccc2n1)Cc1ccccc1 [compound 2],pKi,μOR [4]; [12],5.24
Cc1cccc(NC2CCN(C(=O)Nc3ccc(F)cc3F)CC2)n1 [compound 3],pKi,μOR [4]; [12],4.86
CN(C)[C@H](CNC(=O)Cc1ccc([N+](=O)[O-])s1)Cc1ccccc1 [compound 4],pKi,μOR [4],5.64
Cc1ccc2[nH]c(=O)c(CN3CCN[C@@H](c4ccccc4)C3)cc2c1 [compound 5],pKi,μOR [4]; [12],5.33
CC(C)[C@H](CNC(=O)c1ccc([N+](=O)[O-])s1)N1CCc2ccccc2C1 [compound 8],pKi,μOR [4]; [13],6.09
same,pKi,"κOR; analogs, full dose-response, read-out: κOR Ki",6.34
same,pEC50,"μOR [3]; ND = not detectable under these experimental conditions, read-out: μOR Gi EC50",5.18
O=C(Cc1cn2ccccc2n1)NCC1(c2ccccc2)CCC1 [compound 9],"μOR Ki column, given as percentage",μOR [4]; <50% instead of a Ki,<50%
same,Ki,"κOR; analogs, full dose-response",1.36 µM
CN(Cc1nnc(C2CC2)n1C)C(=O)NC[C@@H](Cc1ccccc1)N(C)C [compound 10],pKi,μOR [4],5.32
same,"κOR Ki, given as percentage",κOR,<50%
CN(C)[C@@H](CNC(=O)NC[C@@H](O)c1cnn(C)c1)Cc1ccccc1 [compound 11],pKi,μOR [4]; [13],5.73
same,"κOR Ki, given as percentage",κOR,<50%
COc1nc(C)cc(C)c1CNC(=O)NC[C@@H](Cc1ccccc1)N(C)C [compound 13],pKi,μOR [4],6.26
same,Ki,"κOR; analogs, full dose-response",1.02 µM
same,EC50,μOR [3]; [14],3100 nM
CN(C)[C@H](CNC(=O)NCc1cccc([N+](=O)[O-])c1)Cc1ccccc1 [compound 14],pKi,μOR [4],7.06
same,Ki,"κOR; analogs, full dose-response",0.51 µM
same,EC50,μOR [3]; [14],440 nM
Cc1nc(CNC(=O)NC[C@@H](Cc2ccccc2)N(C)C)sc1C [compound 15],pKi,μOR [4],6.89
same,"κOR Ki, given as percentage",κOR,<50%
CN(C)[C@H](CNC(=O)NCCc1cn(CCSSCCN=[N+]=[N-])nn1)Cc1ccc(O)cc1 [drawing 545],pKi,hMOR; [5],6.38
same,pKi,MM1 (MOR N127C); [6],7.47
same,pKi,hKOR; [7],5.82
same,pKi,humanDOR; [8],5.41
